The values that follow are results of earlier work, collected in patent publication US9457026B2, “Methods for producing aripiprazole suspension and freeze-dried formulation” (OTSUKA PHARMACEUTICAL CO., LTD., priority 2007, dated 2016).

Bounds are passed on as bounds.

The term aqueous solubility denotes how much of the substance goes into solution per volume.

The conditions of this data set: room temperature.

For the compound `O=C1CCc2ccc(OCCCCN3CCN(c4cccc(Cl)c4Cl)CC3)cc2N1` [Aripiprazole], the aqueous solubility is below 1 µg/mL.
